Assay results from patent US10709715B2, “Method of treating hypertension” (Cipla Limited, priority 2017, dated 2020).
Values joined by “and” are separate entries in the source; they are usually repeats but may differ in a detail not shown here. Equal values may be shown once. Read-outs that look alike come from different tables or passages of the source.

Legend:
[1] = test system: rats with monocrotaline induced pulmonary arterial hypertension; assay: Monocrotaline rat model for pulmonary arterial hypertension, dosing from Day 1 for 28 days (Example 1); assay type: in vivo, Male Sprague-Dawley rats; conditions: for Fulton index: Hypertrophy (RV/LV + S), Mean / RV/Body wt, Mean / Right Ventricular Pressure (RVP), Mean / Right Ventricular Systolic Pressure (RVSP), Mean / Right ventricle (RV), Mean: group mean; for Fulton index: Hypertrophy (RV/LV + S), Mean / RV/Body wt, Mean / Right Ventricular Pressure (RVP), Mean / Right Ventricular Systolic Pressure (RVSP), Mean / Right ventricle (RV), Mean / Fulton index: Hypertrophy (RV/LV + S) / RV/Body wt / Right Ventricular Pressure (RVP) / Right ventricle (RV) / Right Ventricular Systolic Pressure (RVSP): Day 28; for Fulton index: Hypertrophy (RV/LV + S) / RV/Body wt / Right Ventricular Pressure (RVP) / Right ventricle (RV) / Right Ventricular Systolic Pressure (RVSP): individual animals; for Right Ventricular Systolic Pressure (RVSP): MCT 50 mg/kg s.c.
Experimental: The studies were conducted for hemodynamic evaluation of temozolomide in anesthetized sprague dawley rats treated with monocrotaline (“MCT”) to induce pulmonary arterial hypertension. Sildenafil was used as an internal control to compare the effects of temozolomide.
(§1) The effects of temozolomide were evaluated in rats with monocrotaline induced pulmonary arterial hypertension using sildenafil as standard care treatment. Male Sprague-Dawley rats were orally administered vehicle, temozolomide (10 mg/kg given once daily every day for 28 days starting on Day 1), or sildenafil (100 mg/kg, administered once daily every day for 28 days starting on Day 1) (n=12 in each group). Rats received a single injection of monocrotaline (50 mg/kg, s.c.) on Study Day 1. On the twenty-eighth day following monocrotaline dosing, the rats were anesthetized with ketamine/xylazine for terminal monitoring of pulmonary and systemic arterial pressures along with heart rate.
Test Item: Vehicle (0.5% Methylcellulose+0.2% Tween 80 in deionized water, Temozolomide (10 mg/kg given once daily for 28 days; Sildenafil (100 mg/kg administered once daily)
(§2) Route of Administration: Oral
Study Design: The study was planned and conducted according to design depicted below in Table 1
Pulmonary arterial hypertension was induced by injecting monocrotaline (3 mL/Kg MCT in 50% DMSO in water) subcutaneously at a dose of 50 mg/kg of body weight to all the randomized Male Sprague-Dawley rats of Groups II, III,IV and V (except negative control group). Negative control group (Group I, DMSO group) received a single dose of 3 mL/kg 50% DMSO in water for injection subcutaneously. The positive control group (Group III) received 5 ml of vehicle every morning. The rats of temozolomide group (Group IV) were orally administered temozolomide (10 mg/kg given once daily for 28 days starting on Day 1) and rats of sildenafil group (Group V) were orally administered sildenafil (100 mg/kg given once daily for 28 days starting on Day 1) On the twenty-eighth day after monocrotaline dosing, the rats were anesthetized with ketamine/xylazine for terminal monitoring of pulmonary and systemic arterial pressures along with heart rate.

[2] = test system: rats with monocrotaline induced pulmonary arterial hypertension; assay: Monocrotaline rat model for treatment of pulmonary arterial hypertension, dosing Day 14 till Day 28 (Example 2); assay type: in vivo, Male Sprague-Dawley rats; conditions: for inhibition at 100 mg/kg / inhibition at 30 mg/kg: Rattus norvegicus, po; for inhibition at 100 mg/kg / % Inhibition of Fulton index : Hypertrophy (RV/LV + S) / inhibition at 30 mg/kg: positive control = 0.00; for Fulton index: Hypertrophy (RV/LV + S), Mean / Right Ventricle weight, Mean / Right Ventricular Pressure (RVP), Mean / Right Ventricular Systolic Pressure (RVSP), Mean / Right ventricle/Body weight, Mean: group mean; for Fulton index: Hypertrophy (RV/LV + S), Mean / Right Ventricle weight, Mean / Right Ventricular Pressure (RVP), Mean / Right Ventricular Systolic Pressure (RVSP), Mean / Right ventricle/Body weight, Mean / Fulton index: Hypertrophy (RV/LV + S) / Right Ventricle weight / Right Ventricular Pressure (RVP) / Right Ventricular Systolic Pressure (RVSP) / Right ventricle/Body weight: Day 28; for Fulton index: Hypertrophy (RV/LV + S) / Right Ventricle weight / Right Ventricular Pressure (RVP) / Right Ventricular Systolic Pressure (RVSP) / Right ventricle/Body weight: individual animals
Experimental: The studies were conducted for hemodynamic evaluation of Temozolomide in anesthetized Sprague Dawley rats treated with monocrotaline (“MCT”) to induce pulmonary arterial hypertension. Sildenafil was used as an internal control to compare the effects of temozolomide
as §1, with “temozolomide (30 mg/kg,” for “temozolomide (10 mg/kg”, “day” for “day for 28 days”, “Day 14 till Day 28),” for “Day 1),”, “mg/kg, given” for “mg/kg, administered”, “Day 14 till Day 28)” for “Day 1)”
Test Item: Vehicle (0.5% Methylcellulose+0.2% Tween 80 in deionized water, temozolomide (30 mg/kg given once daily starting on Day 14 till Day 28; Sildenafil (100 mg/kg, administered once daily starting on Day 14 till Day 28)
as §2
Study Design: The study was planned and conducted according to design depicted below in Table 7
Pulmonary arterial hypertension was induced by injecting 50 mg/kg dose of monocrotaline (3 mL/Kg MCT in 50% DMSO in water) subcutaneously to all the randomized Male Sprague-Dawley rats of Groups VII, VIII, IX, and X (except negative control group). Negative control group (Group VI, DMSO group) received a single dose of 3 mL/kg 50% DMSO in water for injection subcutaneously. Male Sprague-Dawley rats in groups VII, VIII, IX, and X were administered 50 mg/kg of body weight of monocrotaline in DMSO subcutaneously to induce PAH on day 1. The rats of vehicle positive control group (Group VIII) received 5 ml of vehicle every morning. The rats of the temozolomide group (Group IX) were orally administered Temozolomide (30 mg/kg given once daily starting on Day 14 till Day 28) and rats of sildenafil group (Group X) were orally administered sildenafil (100 mg/kg given once daily starting on Day 14 till Day 28). On the twenty-eighth day after monocrotaline dosing, the rats were anesthetized with ketamine/xylazine for terminal monitoring of pulmonary and systemic arterial pressures along with heart rate. It is understood that from day 1 till administration of test compounds i.e till day 14, rates of all groups were suffering from PAH due to administration of MCT. Thus the study was conducted to evaluate the efficacy of Temozolomide treatment for PAH. Sildenafil was used as an internal control to compare the effects of Temozolomide.

[3] = cited from earlier work
[4] = Sildenafil 100 mg/Kg p.o. QD 28 days from Day 1
[5] = Sildenafil 100 mg/Kg p.o. QD Day 14 till Day 28
[6] = Temozolomide 10 mg/Kg p.o. QD 28 days from Day 1
[7] = Temozolomide 30 mg/Kg p.o. QD Day 14 till Day 28
[8] = administered after a modified high-fat breakfast

Compound: CCCc1nn(C)c2c(=O)[nH]c(-c3cc(S(=O)(=O)N4CCN(C)CC4)ccc3OCC)nc12 [Sildenafil]
- Fulton index: Hypertrophy (RV/LV + S), Mean [1, 4]: 0.312
- RV/Body wt, Mean [1, 4]: 0.0006
- Right Ventricular Pressure (RVP), Mean [1, 4]: 13.929 mmHg
- Right Ventricular Systolic Pressure (RVSP), Mean [1, 4]: 29.648 mmHg
- Right ventricle (RV), Mean [1, 4]: 0.247 g
- Fulton index: Hypertrophy (RV/LV + S) [1, 4]: 0.367 and 0.297 and 0.323 and 0.312 and 0.352 and 0.309 and 0.330 and 0.167 and 0.354
- RV/Body wt [1, 4]: 0.0009 and 0.0006 (4×) and 0.0007 (3×) and 0.0003
- Right Ventricular Pressure (RVP) [1, 4]: 11.481 mmHg and 15.226 mmHg and 11.673 mmHg and 14.427 mmHg and 14.139 mmHg and 16.310 mmHg and 12.947 mmHg and 12.352 mmHg and 16.804 mmHg
- Right ventricle (RV) [1, 4]: 0.440 g and 0.228 g and 0.207 g and 0.232 g and 0.308 g and 0.229 g and 0.261 g and 0.083 g and 0.236 g
- Right Ventricular Systolic Pressure (RVSP) [1, 4]: 23.627 mmHg and 31.322 mmHg and 24.486 mmHg and 29.450 mmHg and 31.316 mmHg and 32.922 mmHg and 34.262 mmHg and 25.579 mmHg and 33.864 mmHg
- inhibition at 100 mg/kg ([2]; Sildenafil 100 mg/Kg p.o. QD Day 14 till Day 28, read-out: % Inhibition of Right Ventricular Pressure (RVP)): 58.3%
- inhibition at 100 mg/kg ([2]; Sildenafil 100 mg/Kg p.o. QD Day 14 till Day 28, read-out: % Inhibition of Right Ventricular Systolic Pressure (RVSP)): 55.1%
- % Inhibition of Fulton index : Hypertrophy (RV/LV + S) [2, 5]: 30.70%
- Fulton index: Hypertrophy (RV/LV + S), Mean [2, 5]: 0.384
- Right Ventricle weight, Mean [2, 5]: 0.286 gms
- Right Ventricular Pressure (RVP), Mean [2, 5]: 14.302 mmHg
- Right Ventricular Systolic Pressure (RVSP), Mean [2, 5]: 30.803 mmHg
- Right ventricle/Body weight, Mean [2, 5]: 0.0008
- Fulton index: Hypertrophy (RV/LV + S) [2, 5]: 0.464 and 0.393 and 0.306 and 0.337 and 0.389 and 0.415
- Right Ventricle weight [2, 5]: 0.309 gms and 0.220 gms and 0.259 gms and 0.256 gms and 0.308 gms and 0.363 gms
- Right Ventricular Pressure (RVP) [2, 5]: 10.916 mmHg and 11.268 mmHg and 17.424 mmHg and 11.506 mmHg and 16.211 mmHg and 18.486 mmHg
- Right Ventricular Systolic Pressure (RVSP) [2, 5]: 22.951 mmHg and 27.908 mmHg and 33.917 mmHg and 23.264 mmHg and 40.201 mmHg and 36.579 mmHg
- Right ventricle/Body weight [2, 5]: 0.0009 (2×) and 0.0006 and 0.0007 (2×) and 0.0012

Compound: Cn1nnc2c(C(N)=O)ncn2c1=O [Temozolomide]
- activity in controlling or reducing PAH ([1]; Temozolomide 10 mg/kg vs Sildenafil 100 mg/kg): comparable among with Sildenafil activity
- systolic and mean pulmonary arterial pressures compared to the vehicle group ([1]; after 28 days, 10 mg/kg/QD/day): differences in systolic and mean pulmonary arterial pressures
- Fulton index: Hypertrophy (RV/LV + S), Mean [1, 6]: 0.342
- RV/Body wt, Mean [1, 6]: 0.0007
- Right Ventricular Pressure (RVP), Mean [1, 6]: 15.548 mmHg
- Right Ventricular Systolic Pressure (RVSP), Mean [1, 6]: 33.732 mmHg
- Right ventricle (RV), Mean [1, 6]: 0.227 g
- Fulton index: Hypertrophy (RV/LV + S) [1, 6]: 0.325 and 0.333 and 0.450 and 0.294 and 0.406 and 0.287 and 0.277 and 0.255 and 0.519 and 0.345 and 0.273
- RV/Body wt [1, 6]: 0.0006 (3×) and 0.0008 (2×) and 0.0005 (4×) and 0.0011 and 0.0007
- Right Ventricular Pressure (RVP) [1, 6]: 11.178 mmHg and 15.927 mmHg and 16.493 mmHg and 19.994 mmHg and 15.532 mmHg and 12.593 mmHg and 16.840 mmHg and 17.431 mmHg and 16.896 mmHg and 16.462 mmHg and 11.679 mmHg
- Right ventricle (RV) [1, 6]: 0.244 g and 0.220 g (2×) and 0.298 g and 0.202 g and 0.268 g and 0.218 g and 0.197 g and 0.167 g and 0.311 g and 0.156 g
- Right Ventricular Systolic Pressure (RVSP) [1, 6]: 29.626 mmHg and 33.857 mmHg and 35.059 mmHg and 38.531 mmHg and 30.456 mmHg and 30.333 mmHg and 36.128 mmHg and 35.368 mmHg and 40.220 mmHg and 33.582 mmHg and 27.895 mmHg
- inhibition at 30 mg/kg ([2]; Temozolomide 30 mg/Kg p.o. QD Day 14 till Day 28, read-out: % Inhibition of Right Ventricular Pressure (RVP)): 53.9%
- inhibition at 30 mg/kg ([2]; Temozolomide 30 mg/Kg p.o. QD Day 14 till Day 28, read-out: % Inhibition of Right Ventricular Systolic Pressure (RVSP)): 44.8%
- % Inhibition of Fulton index : Hypertrophy (RV/LV + S) [2, 7]: 19.83%
- activity in treatment of PAH ([2]; Temozolomide 30 mg/kg vs Sildenafil 100 mg/kg): comparable among with Sildenafil activity
- systolic and mean pulmonary arterial pressures compared to the vehicle group ([2]; after 28 days, 30 mg/kg/QD/day, Day 14 till Day 28): differences in systolic and mean pulmonary arterial pressures
- Fulton index: Hypertrophy (RV/LV + S), Mean [2, 7]: 0.444
- Right Ventricle weight, Mean [2, 7]: 0.274 gms
- Right Ventricular Pressure (RVP), Mean [2, 7]: 15.802 mmHg
- Right Ventricular Systolic Pressure (RVSP), Mean [2, 7]: 37.936 mmHg
- Right ventricle/Body weight, Mean [2, 7]: 0.0009
- Fulton index: Hypertrophy (RV/LV + S) [2, 7]: 0.502 and 0.480 and 0.481 (2×) and 0.382 and 0.357 and 0.485 and 0.506 and 0.341 and 0.427
- Right Ventricle weight [2, 7]: 0.311 gms and 0.286 gms and 0.210 gms and 0.237 gms and 0.273 gms and 0.343 gms and 0.232 gms and 0.245 gms and 0.283 gms and 0.318 gms
- Right Ventricular Pressure (RVP) [2, 7]: 15.151 mmHg and 19.476 mmHg and 14.308 mmHg and 12.295 mmHg and 15.993 mmHg and 21.577 mmHg and 22.479 mmHg and 12.349 mmHg and 12.363 mmHg and 12.035 mmHg
- Right ventricle/Body weight [2, 7]: 0.0011 (3×) and 0.0010 and 0.0008 (3×) and 0.0007 and 0.0009 (2×)
- Right Ventricular Systolic Pressure (RVSP) ([2]; Temozolomide 30 mg/Kg p.o. QD Day 14 till Day 28, MCT 50 mg/kg s.c. Day 1): 39.693 mmHg and 42.429 mmHg and 31.561 mmHg and 36.888 mmHg and 37.763 mmHg and 48.504 mmHg and 45.392 mmHg and 33.928 mmHg and 29.989 mmHg and 33.218 mmHg
- AUC decrease [3, 8]: 9%
- Mean peak plasma concentration decrease [3, 8]: 32%
- median Tmax [3, 8]: 2.25 h
- median Tmax increase [3, 8]: 2 fold
- absorption ([3]; oral administration): rapidly and completely absorbed
